Source: ChEMBL document CHEMBL1138520, “Molecular and conformational determinants of pituitary adenylate cyclase-activating polypeptide (PACAP) for activation of the PAC1 receptor” (J Med Chem, 2009)
The source made the active and inactive calls. No cut-off for these calls is given here. Where a SMILES comes first, the peptide text is derived from it. [ ]: non-standard residue; d: D form. ξ: configuration not given here. ξTiq(1-COOH) = O=C(O)C1NCCc2ccccc21; ξDisc = O=C(O)C1NCc2ccccc21

Key:
[1] = target: T1, Pituitary adenylate cyclase-activating polypeptide type I receptor (Homo sapiens, UniProt P41586); assay: Agonist activity at human recombinant PAC1 receptor expressed in CHO cells assessed as PACAP38-induced calcium mobilization at 1 uM by FLIPR assay; assay type: functional, cell-based
Target sequence in this assay (P41586 whole entry): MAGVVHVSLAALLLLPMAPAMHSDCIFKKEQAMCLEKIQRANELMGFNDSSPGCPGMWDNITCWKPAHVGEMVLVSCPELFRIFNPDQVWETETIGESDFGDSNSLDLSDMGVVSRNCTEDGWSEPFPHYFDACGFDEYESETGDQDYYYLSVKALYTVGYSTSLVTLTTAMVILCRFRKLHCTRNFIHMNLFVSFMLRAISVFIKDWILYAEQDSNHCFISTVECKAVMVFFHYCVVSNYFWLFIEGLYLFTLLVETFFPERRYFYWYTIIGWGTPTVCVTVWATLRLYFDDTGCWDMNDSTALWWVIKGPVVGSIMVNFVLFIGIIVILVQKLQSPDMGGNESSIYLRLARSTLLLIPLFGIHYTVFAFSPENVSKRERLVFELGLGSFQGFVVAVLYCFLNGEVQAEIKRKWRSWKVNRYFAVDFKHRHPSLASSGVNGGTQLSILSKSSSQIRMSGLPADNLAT

[2] = target: T1, Pituitary adenylate cyclase-activating polypeptide type I receptor; assay: Displacement of [125I]Ac-PACAP27 from human recombinant PAC1 receptor expressed in CHO cells by gamma- counter; assay type: cell-based
Target sequence in this assay (P41586 whole entry): as above

[3] = target: T1, Pituitary adenylate cyclase-activating polypeptide type I receptor; assay: Agonist activity at human recombinant PAC1 receptor expressed in CHO cells assessed as PACAP38-induced calcium mobilization at 1 uM by FLIPR assay relative to PACAP38; assay type: functional, cell-based
Target sequence in this assay (P41586 21-468 limits assumed): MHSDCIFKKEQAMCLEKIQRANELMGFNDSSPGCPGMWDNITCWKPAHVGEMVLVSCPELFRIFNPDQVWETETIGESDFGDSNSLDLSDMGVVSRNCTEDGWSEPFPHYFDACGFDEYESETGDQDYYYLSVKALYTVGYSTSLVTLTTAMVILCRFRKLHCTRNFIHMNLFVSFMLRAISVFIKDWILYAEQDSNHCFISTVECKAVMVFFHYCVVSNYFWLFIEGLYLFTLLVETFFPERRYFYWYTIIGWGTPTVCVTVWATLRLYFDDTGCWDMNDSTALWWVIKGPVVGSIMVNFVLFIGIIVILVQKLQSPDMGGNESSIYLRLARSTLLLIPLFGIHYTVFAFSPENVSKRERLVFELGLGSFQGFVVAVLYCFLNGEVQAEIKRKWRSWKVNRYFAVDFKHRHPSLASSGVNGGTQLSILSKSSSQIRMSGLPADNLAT

Row | SMILES | EC50 [1] | IC50 [2] | Emax [3]
1 | CC[C@H](C)[C@H](NC(=O)CNC(=O)[C@H](CC(=O)O)NC(=O)[C@H](CO)NC(=O)[C@@H](N)Cc1cnc[nH]1)C(=O)N1Cc2ccccc2C1C(=O)N[C@H](C(=O)N[C@@H](CC(=O)O)C(=O)N[C@@H](CO)C(=O)N[C@@H](Cc1ccc(O)cc1)C(=O)N[C@@H](CO)C(=O)N[C@@H](CCCNC(=N)N)C(=O)N[C@@H](Cc1ccc(O)cc1)C(=O)N[C@@H](CCCNC(=N)N)C(=O)N[C@@H](CCCCN)C(=O)N[C@@H](CCC(N)=O)C(=O)N[C@@H](CCSC)C(=O)N[C@@H](C)C(=O)N[C@H](C(=O)N[C@@H](CCCCN)C(=O)N[C@@H](CCCCN)C(=O)N[C@@H](Cc1ccc(O)cc1)C(=O)N[C@@H](CC(C)C)C(=O)N[C@@H](C)C(=O)N[C@@H](C)C(=O)N[C@H](C(=O)N[C@@H](CC(C)C)C(N)=O)C(C)C)C(C)C)[C@@H](C)O (stereo partly specified) | Not Active | 3590 nM | inactive
2 | CC[C@H](C)[C@H](NC(=O)CNC(=O)[C@H](CC(=O)O)NC(=O)[C@H](CO)NC(=O)[C@@H](N)Cc1cnc[nH]1)C(=O)N(C)[C@@H](Cc1ccccc1)C(=O)N[C@H](C(=O)N[C@@H](CC(=O)O)C(=O)N[C@@H](CO)C(=O)N[C@@H](Cc1ccc(O)cc1)C(=O)N[C@@H](CO)C(=O)N[C@@H](CCCNC(=N)N)C(=O)N[C@@H](Cc1ccc(O)cc1)C(=O)N[C@@H](CCCNC(=N)N)C(=O)N[C@@H](CCCCN)C(=O)N[C@@H](CCC(N)=O)C(=O)N[C@@H](CCSC)C(=O)N[C@@H](C)C(=O)N[C@H](C(=O)N[C@@H](CCCCN)C(=O)N[C@@H](CCCCN)C(=O)N[C@@H](Cc1ccc(O)cc1)C(=O)N[C@@H](CC(C)C)C(=O)N[C@@H](C)C(=O)N[C@@H](C)C(=O)N[C@H](C(=O)N[C@@H](CC(C)C)C(=O)NCC(=O)N[C@@H](CCCCN)C(=O)N[C@@H](CCCNC(=N)N)C(=O)N[C@@H](Cc1ccc(O)cc1)C(=O)N[C@@H](CCCCN)C(=O)N[C@@H](CCC(N)=O)C(=O)N[C@@H](CCCNC(=N)N)C(=O)N[C@H](C(=O)N[C@@H](CCCCN)C(=O)N[C@@H](CC(N)=O)C(=O)N[C@@H](CCCCN)C(N)=O)C(C)C)C(C)C)C(C)C)[C@@H](C)O | Not Active | 1280 nM | inactive
3 | CC[C@H](C)[C@H](NC(=O)CNC(=O)[C@H](CC(=O)O)NC(=O)[C@H](CO)NC(=O)[C@@H](N)Cc1cnc[nH]1)C(=O)N(C)[C@@H](Cc1ccccc1)C(=O)N[C@H](C(=O)N[C@@H](CC(=O)O)C(=O)N[C@@H](CO)C(=O)N[C@@H](Cc1ccc(O)cc1)C(=O)N[C@@H](CO)C(=O)N[C@@H](CCCNC(=N)N)C(=O)N[C@@H](Cc1ccc(O)cc1)C(=O)N[C@@H](CCCNC(=N)N)C(=O)N[C@@H](CCCCN)C(=O)N[C@@H](CCC(N)=O)C(=O)N[C@@H](CCSC)C(=O)N[C@@H](C)C(=O)N[C@H](C(=O)N[C@@H](CCCCN)C(=O)N[C@@H](CCCCN)C(=O)N[C@@H](Cc1ccc(O)cc1)C(=O)N[C@@H](CC(C)C)C(=O)N[C@@H](C)C(=O)N[C@@H](C)C(=O)N[C@H](C(=O)N[C@@H](CC(C)C)C(N)=O)C(C)C)C(C)C)[C@@H](C)O | Not Active | 3150 nM | inactive
4 | CC[C@H](C)[C@H](NC(=O)CNC(=O)[C@H](CC(=O)O)NC(=O)[C@H](CO)NC(=O)[C@@H](N)Cc1cnc[nH]1)C(=O)N1CCc2ccccc2C1C(=O)N[C@H](C(=O)N[C@@H](CC(=O)O)C(=O)N[C@@H](CO)C(=O)N[C@@H](Cc1ccc(O)cc1)C(=O)N[C@@H](CO)C(=O)N[C@@H](CCCNC(=N)N)C(=O)N[C@@H](Cc1ccc(O)cc1)C(=O)N[C@@H](CCCNC(=N)N)C(=O)N[C@@H](CCCCN)C(=O)N[C@@H](CCC(N)=O)C(=O)N[C@@H](CCSC)C(=O)N[C@@H](C)C(=O)N[C@H](C(=O)N[C@@H](CCCCN)C(=O)N[C@@H](CCCCN)C(=O)N[C@@H](Cc1ccc(O)cc1)C(=O)N[C@@H](CC(C)C)C(=O)N[C@@H](C)C(=O)N[C@@H](C)C(=O)N[C@H](C(=O)N[C@@H](CC(C)C)C(=O)NCC(=O)N[C@@H](CCCCN)C(=O)N[C@@H](CCCNC(=N)N)C(=O)N[C@@H](Cc1ccc(O)cc1)C(=O)N[C@@H](CCCCN)C(=O)N[C@@H](CCC(N)=O)C(=O)N[C@@H](CCCNC(=N)N)C(=O)N[C@H](C(=O)N[C@@H](CCCCN)C(=O)N[C@@H](CC(N)=O)C(=O)N[C@@H](CCCCN)C(N)=O)C(C)C)C(C)C)C(C)C)[C@@H](C)O (stereo partly specified) (H-HSDGI[ξTiq(1-COOH)]TDSYSRYRKQMAVKKYLAAVLGKRYKQRVKNK-NH2) | Not Active | 1550 nM | inactive

The remaining molecules from weak to strong by IC50 [2], led by results:

Row | EC50 [1] | IC50 [2] | Emax [3] | SMILES
5 | Not Active | 2590 nM | inactive | CC[C@H](C)[C@H](NC(=O)CNC(=O)[C@H](CC(=O)O)NC(=O)[C@H](CO)NC(=O)[C@@H](N)Cc1cnc[nH]1)C(=O)N1CCc2ccccc2C1C(=O)N[C@H](C(=O)N[C@@H](CC(=O)O)C(=O)N[C@@H](CO)C(=O)N[C@@H](Cc1ccc(O)cc1)C(=O)N[C@@H](CO)C(=O)N[C@@H](CCCNC(=N)N)C(=O)N[C@@H](Cc1ccc(O)cc1)C(=O)N[C@@H](CCCNC(=N)N)C(=O)N[C@@H](CCCCN)C(=O)N[C@@H](CCC(N)=O)C(=O)N[C@@H](CCSC)C(=O)N[C@@H](C)C(=O)N[C@H](C(=O)N[C@@H](CCCCN)C(=O)N[C@@H](CCCCN)C(=O)N[C@@H](Cc1ccc(O)cc1)C(=O)N[C@@H](CC(C)C)C(=O)N[C@@H](C)C(=O)N[C@@H](C)C(=O)N[C@H](C(=O)N[C@@H](CC(C)C)C(N)=O)C(C)C)C(C)C)[C@@H](C)O (stereo partly specified)
6 | Not Active | 1750 nM | inactive | CC[C@H](C)[C@H](NC(=O)CNC(=O)[C@H](CC(=O)O)NC(=O)[C@H](CO)NC(=O)[C@@H](N)Cc1cnc[nH]1)C(=O)N1Cc2ccccc2C1C(=O)N[C@H](C(=O)N[C@@H](CC(=O)O)C(=O)N[C@@H](CO)C(=O)N[C@@H](Cc1ccc(O)cc1)C(=O)N[C@@H](CO)C(=O)N[C@@H](CCCNC(=N)N)C(=O)N[C@@H](Cc1ccc(O)cc1)C(=O)N[C@@H](CCCNC(=N)N)C(=O)N[C@@H](CCCCN)C(=O)N[C@@H](CCC(N)=O)C(=O)N[C@@H](CCSC)C(=O)N[C@@H](C)C(=O)N[C@H](C(=O)N[C@@H](CCCCN)C(=O)N[C@@H](CCCCN)C(=O)N[C@@H](Cc1ccc(O)cc1)C(=O)N[C@@H](CC(C)C)C(=O)N[C@@H](C)C(=O)N[C@@H](C)C(=O)N[C@H](C(=O)N[C@@H](CC(C)C)C(=O)NCC(=O)N[C@@H](CCCCN)C(=O)N[C@@H](CCCNC(=N)N)C(=O)N[C@@H](Cc1ccc(O)cc1)C(=O)N[C@@H](CCCCN)C(=O)N[C@@H](CCC(N)=O)C(=O)N[C@@H](CCCNC(=N)N)C(=O)N[C@H](C(=O)N[C@@H](CCCCN)C(=O)N[C@@H](CC(N)=O)C(=O)N[C@@H](CCCCN)C(N)=O)C(C)C)C(C)C)C(C)C)[C@@H](C)O (stereo partly specified) (H-HSDGI[ξDisc]TDSYSRYRKQMAVKKYLAAVLGKRYKQRVKNK-NH2)
7 | Not Active | 268 nM | inactive | CC[C@H](C)[C@H](NC(=O)CNC(=O)[C@H](CC(=O)O)NC(=O)[C@H]1CCCN1C(=O)[C@@H](N)Cc1cnc[nH]1)C(=O)N[C@@H](Cc1ccccc1)C(=O)N[C@H](C(=O)N[C@@H](CC(=O)O)C(=O)N[C@@H](CO)C(=O)N[C@@H](Cc1ccc(O)cc1)C(=O)N[C@@H](CO)C(=O)N[C@@H](CCCNC(=N)N)C(=O)N[C@@H](Cc1ccc(O)cc1)C(=O)N[C@@H](CCCNC(=N)N)C(=O)N[C@@H](CCCCN)C(=O)N[C@@H](CCC(N)=O)C(=O)N[C@@H](CCSC)C(=O)N[C@@H](C)C(=O)N[C@H](C(=O)N[C@@H](CCCCN)C(=O)N[C@@H](CCCCN)C(=O)N[C@@H](Cc1ccc(O)cc1)C(=O)N[C@@H](CC(C)C)C(=O)N[C@@H](C)C(=O)N[C@@H](C)C(=O)N[C@H](C(=O)N[C@@H](CC(C)C)C(N)=O)C(C)C)C(C)C)[C@@H](C)O
